Measurements: patent publication US20090118479A1, “Azo compound, ink composition, recording method and colored article” (priority 2005, published 2009)

Assay: solubility of the azo compound (to water)
Assay type: physicochemical
Text: The azo compound of the present invention can be used directly or in formulation with an appropriate carrier or the like, as a colorant for various kinds of articles. […] Said water-based composition is useful as a colorant for various kinds of articles. For example, said water-based composition can dye a material composed of cellulose. In addition, it can dye other materials having carbonamide bonds and widely used for dyeing of leather, textile and paper. Meanwhile, a typical use of the compound of the present invention includes an ink composition prepared by dissolving it in a liquid medium.

Row | SMILES | solubility
1 | Nc1c(N=Nc2ccc3c(O)c(N=Nc4ccc5c(O)c(N=Nc6ccc(N=Nc7ccc(S(=O)(=O)O)cc7)cc6S(=O)(=O)O)c(S(=O)(=O)O)cc5c4S(=O)(=O)O)c(S(=O)(=O)O)cc3c2S(=O)(=O)O)cc(S(=O)(=O)O)c2cc(S(=O)(=O)O)c(N=Nc3ccc(S(=O)(=O)O)cc3[N+](=O)[O-])c(O)c12 [compound No. 2] | ≥ 100 mg/mL
2 | Cc1cc(N=Nc2c(S(=O)(=O)O)cc3c(S(=O)(=O)O)c(N=Nc4c(S(=O)(=O)O)cc5c(S(=O)(=O)O)c(N=Nc6cc(S(=O)(=O)O)c7cc(S(=O)(=O)O)c(N=Nc8ccc([N+](=O)[O-])cc8S(=O)(=O)O)c(O)c7c6N)ccc5c4O)ccc3c2O)c(OCCCS(=O)(=O)O)cc1N=Nc1cc(S(=O)(=O)O)cc2cc(S(=O)(=O)O)cc(O)c12 [compound No. 13] | ≥ 100 mg/mL
